The compounds below were run against rat MCH-1 (Rattus norvegicus, UniProt P97639) (assay: Radioligand binding assay at cloned rat MCH1 receptor ([3H] Compound A)). Settings: cloned rat MCH1 receptor; 0.08 nM [3H] Compound A; Peakr293 cell membranes; read-out: Ki (nM) rMCH1.
Set-up: host or cells: Peak rapid 293 (Peakr293) cells, transient calcium phosphate transfection, membranes

rat MCH-1, sequence (P97639 whole entry): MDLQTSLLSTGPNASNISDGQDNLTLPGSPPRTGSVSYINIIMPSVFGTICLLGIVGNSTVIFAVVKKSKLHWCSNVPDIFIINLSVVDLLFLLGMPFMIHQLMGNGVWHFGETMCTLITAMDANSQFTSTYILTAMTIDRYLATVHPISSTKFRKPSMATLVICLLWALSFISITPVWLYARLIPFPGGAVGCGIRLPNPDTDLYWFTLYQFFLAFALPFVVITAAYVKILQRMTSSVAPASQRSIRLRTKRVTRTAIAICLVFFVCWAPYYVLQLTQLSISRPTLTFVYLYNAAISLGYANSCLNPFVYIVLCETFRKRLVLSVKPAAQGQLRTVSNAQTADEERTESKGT

Ki [nM] | Compound
181 | CC(C)C(=O)Nc1cccc(C2CCN(CCCCC(=O)N3C(=O)OC[C@H]3c3ccc(F)c(F)c3)CC2)c1 [Example 572]
114 | CC(C)C(=O)Nc1cccc(C2CCN(CCCNC(=O)N3C(=O)OC[C@H]3c3ccc(F)c(F)c3)CC2)c1 [Example 573]
87.1 | CC(C)C(=O)Nc1cccc(C2CCN(CCCCCN3C(=O)OC[C@@H]3c3ccc(F)c(F)c3)CC2)c1 [Example 574]
193 | CC(C)C(=O)Nc1cccc(C2CCN(CCCCC(=O)N3C(=O)OC[C@@H]3c3ccc(F)c(F)c3)CC2)c1 [Example 575]
74.3 | CC(C)C(=O)Nc1cccc(C2CCN(CCCNC(=O)N3C(=O)OC[C@@H]3c3ccc(F)c(F)c3)CC2)c1 [Example 576]
64.7 | CC(C)C(=O)Nc1cccc(C2CCN(CCCNC(=O)N3C(=O)OC[C@@H]3c3cc(F)c(F)c(F)c3)CC2)c1 [Example 577]
98.8 | CC(C)C(=O)Nc1cccc(C2CCN(CCCNC(=O)N3C(=O)OC[C@@H]3c3cc(F)cc(F)c3)CC2)c1 [Example 578]
131 | CCC(=O)Nc1cccc(C2CCN(CCCSc3ccccc3)CC2)c1 [Example 579]
54 | O=C(Nc1cccc(C2CCN(CCCSc3ccccc3)CC2)c1)C1CC1 [Example 580]
86.4 | CC(C)C(=O)Nc1cccc(C2CCN(CCCSc3ccccc3)CC2)c1 [Example 581]
58.3 | O=C(Nc1cccc(C2CCN(CCCCCCSc3ccccc3)CC2)c1)C1CC1 [Example 582]
55.5 | CCC(=O)Nc1cccc(C2CCN(CCCCSc3ccccc3)CC2)c1 [Example 583]
51.8 | O=C(Nc1cccc(C2CCN(CCCCSc3ccccc3)CC2)c1)C1CC1 [Example 584]
37.2 | CC(C)C(=O)Nc1cccc(C2CCN(CCCCSc3ccccc3)CC2)c1 [Example 585]
42.9 | CC(C)C(=O)Nc1cccc(C2CCN(CCCCCSc3ccccc3)CC2)c1 [Example 586]
46.9 | O=C(Nc1cccc(C2CCN(CCCCCSc3ccccc3)CC2)c1)C1CC1 [Example 587]
284 | CCC(=O)Nc1cccc(C2CCN(CCCCCCSc3ccccc3)CC2)c1 [Example 588]
66.6 | CCC(=O)Nc1cccc(C2CCN(CCCCCSc3ccccc3)CC2)c1 [Example 589]
157 | CC(C)C(=O)Nc1cccc(C2CCN(CCC[S+]([O-])c3ccc(F)cc3)CC2)c1 (stereo not shown) [Example 590]
138 | CC(C)C(=O)Nc1cccc(C2CCN(CCC[S+]([O-])c3ccccc3Br)CC2)c1 (stereo not shown) [Example 591]
186 | CC(C)C(=O)Nc1cccc(C2CCN(CC[C@H](NS(=O)(=O)c3ccc(F)c(F)c3)c3ccccc3)CC2)c1 [Example 592]
7.6 | CC(C)C(=O)Nc1cccc(C2CCN(CC[C@H](NC(=O)c3sccc3Cl)c3ccccc3)CC2)c1 [Example 593]
67 | CC(C)C(=O)Nc1cccc(C2CCN(CC[C@H](NS(=O)(=O)c3cccc4c(N(C)C)cccc34)c3ccccc3)CC2)c1 [Example 594]
36.3 | Cc1ccc(S(=O)(=O)N[C@@H](CCN2CCC(c3cccc(NC(=O)C(C)C)c3)CC2)c2ccccc2)cc1 [Example 595]
597 | CC(C)C(=O)Nc1cccc(C2CCN(CC[C@H](NS(=O)(=O)c3cc(Cl)cc(Cl)c3O)c3ccccc3)CC2)c1 [Example 596]

Ki [nM] | Compound
223 | CC(C)C(=O)Nc1cccc(C2CCN(CC[C@H](NS(C)(=O)=O)c3ccccc3)CC2)c1 [Example 597]
25.3 | CC(C)C(=O)Nc1cccc(C2CCN(CC[C@H](NS(=O)(=O)c3ccc(F)cc3)c3ccccc3)CC2)c1 [Example 598]
50 | CC(C)C(=O)Nc1cccc(C2CCN(CC[C@H](NS(=O)(=O)c3ccc(C(C)(C)C)cc3)c3ccccc3)CC2)c1 [Example 599]
41.3 | CC(C)C(=O)Nc1cccc(C2CCN(CC[C@H](NS(=O)(=O)c3cc(Cl)ccc3Cl)c3ccccc3)CC2)c1 [Example 600]
144 | CCCS(=O)(=O)N[C@@H](CCN1CCC(c2cccc(NC(=O)C(C)C)c2)CC1)c1ccccc1 [Example 601]
44.6 | Cc1noc(C)c1S(=O)(=O)N[C@@H](CCN1CCC(c2cccc(NC(=O)C(C)C)c2)CC1)c1ccccc1 [Example 602]
287 | COC(=O)c1sccc1S(=O)(=O)NCCCN1CCC(c2cccc(NC(=O)C(C)C)c2)CC1 [Example 603, METHYL 3-{[(3-{4-[3-(ISOBUTYRYLAMINO)PHENYL]-1-PIPERIDINYL}PROPYL)AMINO]SULFONYL}-2-THIOPHENECARBOXYLATE]
36.8 | CC(C)C(=O)Nc1cccc(C2CCN(CC[C@H](NC(=O)Nc3ccc(Oc4ccccc4)cc3)c3ccccc3)CC2)c1 [Example 604]
94.5 | CC(C)C(=O)Nc1cccc(C2CCN(CC[C@H](NC(=O)Nc3ccccc3)c3ccccc3)CC2)c1 [Example 605]
40.4 | CC(C)C(=O)Nc1cccc(C2CCN(CC[C@H](NC(=S)NC(C)(C)C)c3ccccc3)CC2)c1 [Example 606]
142 | CC(C)C(=O)Nc1cccc(C2CCN(CC[C@H](NC(=O)Nc3ccccc3F)c3ccccc3)CC2)c1 [Example 607]
34.9 | Cc1ccccc1NC(=S)N[C@@H](CCN1CCC(c2cccc(NC(=O)C(C)C)c2)CC1)c1ccccc1 [Example 608]
35.4 | CC(C)C(=O)Nc1cccc(C2CCN(CC[C@H](NC(=O)NCc3ccccc3)c3ccccc3)CC2)c1 [Example 609]
530 | CC(C)C(=O)Nc1cccc(C2CCN(CC[C@H](NC(=O)Nc3ccccc3[N+](=O)[O-])c3ccccc3)CC2)c1 [Example 610]
65.1 | CC(C)C(=O)Nc1cccc(C2CCN(CC[C@H](NC(=O)Nc3ccc(Cl)c(Cl)c3)c3ccccc3)CC2)c1 [Example 611]
121 | CSc1ccccc1NC(=O)N[C@@H](CCN1CCC(c2cccc(NC(=O)C(C)C)c2)CC1)c1ccccc1 [Example 612]
34.9 | CC(C)C(=O)Nc1cccc(C2CCN(CCCNC(=O)Nc3ccc(F)cc3)CC2)c1 [Example 613]
84.8 | CC(C)C(=O)Nc1cccc(C2CCN(CCCNC(=O)Nc3ccc(Cl)c(Cl)c3)CC2)c1 [Example 614]
210 | Cc1ccccc1NC(=S)NCCCN1CCC(c2cccc(NC(=O)C(C)C)c2)CC1 [Example 615]
406 | CC(C)C(=O)Nc1cccc(C2CCN(CCCNC(=O)NCc3ccccc3)CC2)c1 [Example 616]
609 | CCOc1ccc(NC(=O)NCCCN2CCC(c3cccc(NC(=O)C(C)C)c3)CC2)cc1 [Example 617]
400 | CC(C)C(=O)Nc1cccc(C2CCN(CCCNC(=O)Nc3ccccc3)CC2)c1 [Example 618]
178 | CSc1ccccc1NC(=O)NCCCN1CCC(c2cccc(NC(=O)C(C)C)c2)CC1 [Example 619]
223 | CC(C)C(=O)Nc1cccc(C2CCN(CCCNC(=S)NC(C)(C)C)CC2)c1 [Example 620]
205 | CC(C)C(=O)Nc1cccc(C2CCN(CCCNC(=O)Nc3ccc(Oc4ccccc4)cc3)CC2)c1 [Example 621]

Ki [nM] | Compound
162 | CC(=O)Nc1cccc(C2CCN(CCCNC(=O)C3=C(C)NC(=O)CC3c3ccc(F)cc3F)CC2)c1 (stereo not shown) [Example 622]
23.1 | CC(=O)Nc1cccc(C2CCN(CCCNC(=O)C3=C(C)NC(=O)CC3c3ccc(F)c(F)c3)CC2)c1 (stereo not shown) [Example 623]
47.8 | CC(C)C(=O)Nc1cccc(C2CCN(CCCCCCNC(=O)c3cnn(-c4ccc([N+](=O)[O-])cc4)c3C(F)(F)F)CC2)c1 [Example 624]
29.5 | CC(C)C(=O)Nc1cccc(C2CCN(CCCCCCNC(=O)C(c3ccccc3)c3ccccc3)CC2)c1 [Example 625]
20.9 | CC(C)C(=O)Nc1cccc(C2CCN(CCCCCCNC(=O)c3ccc(Oc4cc(Cl)cc(Cl)c4)o3)CC2)c1 [Example 626]
109 | CC(C)C(=O)Nc1cccc(C2CCN(CCCCCCNC(=O)c3cccnc3Oc3ccccc3)CC2)c1 [Example 627]
161 | CC(C)C(=O)Nc1cccc(C2CCN(CCCCCCNC(=O)c3ccc4ccccc4c3)CC2)c1 [Example 628]
42.9 | CC(C)C(=O)Nc1cccc(C2CCN(CCCCCCNC(=O)c3cc(C(C)(C)C)nn3Cc3ccccc3)CC2)c1 [Example 629]
202 | CC(C)C(=O)Nc1cccc(C2CCN(CCCCCCNC(=O)c3scc(S(=O)(=O)C(C)C)c3Cl)CC2)c1 [Example 630]
259 | CC(C)C(=O)Nc1cccc(C2CCN(CCCCCCNC(=O)Nc3ccccc3)CC2)c1 [Example 631]
76.6 | CC(C)C(=O)Nc1cccc(C2CCN(CCCCCCNC(=O)Nc3ccc(Cl)cc3Cl)CC2)c1 [Example 632]
108 | CCCc1c(C(=O)NCCCCCCN2CCC(c3cccc(NC(=O)C(C)C)c3)CC2)cnn1-c1ccccc1 [Example 633]
116 | CC(C)C(=O)Nc1cccc(C2CCN(CCCCCCNC(=O)Nc3cccc4ccccc34)CC2)c1 [Example 634]
73.6 | CC(C)C(=O)Nc1cccc(C2CCN(CCCCCCNC(=O)Nc3ccc(-c4ccccc4)cc3)CC2)c1 [Example 635]
40.8 | CC(C)C(=O)Nc1cccc(C2CCN(CCCCCCNC(=O)Nc3ccc4ccccc4c3)CC2)c1 [Example 636]
106 | COc1ccc(S(=O)(=O)NCCCN2CCC(c3cccc(NC(=O)C(C)C)c3)CC2)cc1OC [Example 637]
29.8 | Cc1onc(-c2ccccc2)c1C(=O)NCCCN1CCC(c2cccc(NC(=O)C(C)C)c2)CC1 [Example 638]
36.3 | CC(C)C(=O)Nc1cccc(C2CCN(CCCNC(=O)Cc3ccc(F)cc3)CC2)c1 [Example 639]
11.2 | CC(C)C(=O)Nc1cccc(C2CCN(CCCNS(=O)(=O)c3ccc(Cl)c([N+](=O)[O-])c3)CC2)c1 [Example 640]
14.2 | CC(C)C(=O)Nc1cccc(C2CCN(CCCNC(=O)c3cccnc3Oc3ccc(Cl)cc3)CC2)c1 [Example 641]
8.3 | CC(C)C(=O)Nc1cccc(C2CCN(CCCNC(=O)c3ccc(Oc4cc(Cl)cc(Cl)c4)o3)CC2)c1 [Example 642]
130 | CC(C)C(=O)Nc1cccc(C2CCN(CCCNS(=O)(=O)c3ccccc3F)CC2)c1 [Example 643]
196 | Cc1noc(C)c1S(=O)(=O)NCCCN1CCC(c2cccc(NC(=O)C(C)C)c2)CC1 [Example 644]
